Key:
SKBR3 breast carcinoma = experiment: Cell Proliferation Inhibition Assay, SKBR3 (14C-thymidine); assay type: cell-based; conditions: Homo sapiens, SK-BR-3, C14 method
Excerpt: (§1) Cell Proliferation Inhibition Assay
(§2) The ability of a test compound to inhibit unregulated cell proliferation may be determined by measuring incorporation of ^14C-labelled thymidine into newly synthesized DNA within cell lines derived from carcinomas originating from several tissues. Accordingly, the effect of a test compound on proliferation of cells with a variety of phenotypes may be determined.
(§3) Carcinoma cell lines used include the HeLa cervical adenocarcinoma from the American Type Culture Collection (ATCC Cat. #CCL2), A375 malignant melanoma (ATCC Cat. #CRL-1619), HCT-116 colon carcinoma (ATCC Cat. #CCL-247), SKBR3 breast carcinoma (ATCC Cat. #HTB-30) and BT474 breast carcinoma (ATCC Cat. #HTB-20).
(§4) The carcinoma cells were trypsinized and counted. The cells (3000-8000 count) were added to each well of a 96-well CytoStar tissue culture treated scintillating microplate (Amersham #RPNQ0160) in complete medium (100 μL) and the plate was then incubated in complete medium for 24 hrs at 37° C. in an inert atmosphere containing 5% CO2.
(§5) Test compound (1 μL) in 100% DMSO was added to the plate test-wells with DMSO only added to control-wells. The plate was incubated in complete medium for a second 24 hr period at 37° C. in an atmosphere containing 5% CO2.
(§6) An aliquot of a solution of Methyl ^14C-thymidine (56 mC/mmol) (NEN #NEC568 or AMersham #CFA532) and complete medium (20 uL to provide 0.2 μCl/well) was then added to each well and the plate was incubated for a third 24 hr period at 37° C. in an atmosphere containing 5% CO2.
(§7) The plate contents were then discarded, the plate washed twice with PBS (200 μL) and then PBS (200 μL) was added to each well. The plate was sealed and the degree of methyl ^14C-thymidine incorporation was quantified on a Packard Top Count.
(§8) Cell proliferation of the Hela cell line was measured using the ATP-Lite method as described in the ATP Lite Kit (Perkin-Elmer Kit Number 6106941) or the C^14 method as described above. Cell proliferation of the other cell lines was measured using the C^14 method.

[1] = system: HeLa cervical adenocarcinoma; experiment: Cell Proliferation Inhibition Assay, Hela (ATP Lite); assay type: cell-based; conditions: Homo sapiens, ATP-Lite method
Excerpt: as §1, §2, §3, §4, §5, §8

BT474 breast carcinoma = experiment: Cell Proliferation Inhibition Assay, BT474 (14C-thymidine); assay type: cell-based; conditions: Homo sapiens, BT-474, C14 method
Excerpt: as §1, §2, §3, §4, §5, §6, §7, §8

HER-4 = biological target: T1, HER-4 (Homo sapiens, UniProt Q15303); experiment: HER-4 Kinase Assay; assay type: biochemical
T1 construct: His6 with thrombin site (N); purchased Proqinase (Freiburg, Germany)
Procedure: The HER-4 kinase used was purified at Proqinase (Freiburg, Germany) from a construct that consisted of a fusion of GST (Glutathione-S-Transferase), HIS6-Thrombin and the nucleotides encoding amino acids 676 to 1307 of HER-4 (Accession NM 005235).
A mixture of a 10× kinase reaction buffer (600 mM Hepes at pH 7.5, 30 mM Magnesium Chloride, 0.03 mM Sodium Vanadate and 500 μg/mL PEG 20,000), DTT (1.2 mM final from a 10 mM) stock), ATP (1 μM from a 10 mM stock), biotinylated polyGluTyr (1.5 ng/μL final from stock of 1 μg/μL) prepared by Upstate Biotechnologies, Lake Placid, N.Y.), Manganese Chloride (3 mM final from a 1 M stock), γ-^33P-ATP (10 μCl/mL stock) and water (70 μL/well) was added to each well of a Streptavidin Flashplate (Cat. # SMP103, NEN, Boston, Mass.).
Test compound stock (1 μL) was added to the appropriate wells. Diluted GST HER-4 kinase (6.7 ng/μL diluted into 50 mM Tris-HCl at pH 8.0 and 0.1% bovine serum albumin) (30 μL) was added (total volume of 200 ng/well) to initiate the reactions.
The reaction plates were incubated at 30° C. for 1 hr. The reaction was terminated by aspirating the reaction mixture from the plate wells and washing the wells three times with a 1×PBS stop buffer (300 μL) and 100 mM EDTA. After the final wash, the same stop buffer (200 μL) was again added to the wells. The plates were then sealed and read on the TopCount scintillation counter.
For a series of test concentrations, the IC50 was derived by graphing percent inhibition against the log of the concentrations tested for a given compound.

[2] = system: Human epidermoid A431 carcinoma; experiment: In Vivo Models - Inhibition of Tumor Growth, A431; conditions: 100 mg/kg, oral daily for 30 days, athymic mice
Procedure: In Vivo Models—Inhibition of Tumor Growth
The ability of test compounds to inhibit unregulated growth of human tumor cells in vivo was evaluated by implanting human tumor cells into the hindflank of athymic mice, administering a test compound and then quantifying any change in tumor size.
Human epidermoid A431 carcinoma, N87 cells and BT474 cells were implanted subcutaneously into the hindflank of female athymic mice (Charles River) and allowed to grow for 6-10 days. After a measurable tumor was established (as determined by baseline caliper measurement), the animal was administered an oral dose of the test compound daily for a period of 30 days. Tumor size was measured every five days and the degree of inhibition was determined by comparing drug-treated animals to vehicle-treated animals.
Variations of this method are intended to include intraperitoneal injection or intravenous infusion as the route of administration and administration of the test compound either alone or in a combination therapy.
The inhibition of tumor growth values are shown in Table 8 at various test concentrations, as indicated. For compounds with multiple values at one test concentration, each value represents a separate assay result.

T1 sequence (Q15303 676-1307): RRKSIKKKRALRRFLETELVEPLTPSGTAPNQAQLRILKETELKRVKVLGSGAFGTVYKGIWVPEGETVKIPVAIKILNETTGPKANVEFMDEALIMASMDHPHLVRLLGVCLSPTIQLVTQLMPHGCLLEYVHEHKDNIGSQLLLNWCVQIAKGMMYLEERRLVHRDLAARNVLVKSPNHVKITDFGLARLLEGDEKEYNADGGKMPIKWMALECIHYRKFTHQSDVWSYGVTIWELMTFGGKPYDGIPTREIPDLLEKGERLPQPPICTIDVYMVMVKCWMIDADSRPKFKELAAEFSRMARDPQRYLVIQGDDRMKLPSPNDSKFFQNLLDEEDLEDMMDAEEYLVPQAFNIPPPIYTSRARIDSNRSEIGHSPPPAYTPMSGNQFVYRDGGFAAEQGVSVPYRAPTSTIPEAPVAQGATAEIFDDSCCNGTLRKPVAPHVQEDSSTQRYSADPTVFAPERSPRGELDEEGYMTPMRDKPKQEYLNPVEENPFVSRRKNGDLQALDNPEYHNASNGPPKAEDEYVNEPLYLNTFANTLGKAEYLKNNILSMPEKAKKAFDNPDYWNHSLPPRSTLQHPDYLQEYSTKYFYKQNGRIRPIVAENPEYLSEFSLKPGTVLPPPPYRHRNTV

IC50 (SKBR3 breast carcinoma)	IC50 [1]	IC50 (BT474 breast carcinoma)	IC50 (HER-4)	Compound	percent inhibition A431 [2]
100 µM	100 µM	≥ 100 µM	–	O=C(Nc1ccc(CN2CCOCC2)cc1)c1sc2ncnc3c2c1NC(=O)N3c1cccc(Br)c1 [Cpd 36, 5-(3-bromo-phenyl)-4-oxo-4,5-dihydro-3H-1-thia-3,5,6,8-tetraaza-acenaphthylene-2-carboxylic acid (4-morpholin-4-ylmethyl-phenyl)-amide]	–
100 µM	100 µM	≥ 100 µM	–	O=C(O)c1sc2ncnc3c2c1NC(=O)N3c1ccc(OCc2ccccn2)c(Cl)c1 [Cpd 38, 5-[3-chloro-4-(pyridin-2-ylmethoxy)-phenyl]-4-oxo-4,5-dihydro-3H-1-thia-3,5,6,8-tetraaza-acenaphthylene-2-carboxylic acid]	–
100 µM	100 µM	≥ 10 µM	–	COc1ccc(NC(=O)c2sc3ncnc4c3c2NC(=O)N4c2ccc(OCc3ccccn3)c(Cl)c2)cc1OC [Cpd 48, 5-[3-chloro-4-(pyridin-2-ylmethoxy)-phenyl]-4-oxo-4,5-dihydro-3H-1-thia-3,5,6,8-tetraaza-acenaphthylene-2-carboxylic acid (3,4-dimethoxy-phenyl)-amide]	–
2.61 µM	27 µM	5.98 µM	–	O=C(Nc1ccc(CN2CCOCC2)cc1)c1sc2ncnc3c2c1NC(=O)N3c1ccc(OCc2ccccn2)c(Cl)c1 [Cpd 52, 5-[3-chloro-4-(pyridin-2-ylmethoxy)-phenyl]-4-oxo-4,5-dihydro-3H-1-thia-3,5,6,8-tetraaza-acenaphthylene-2-carboxylic acid (4-morpholin-4-ylmethyl-phenyl)-amide]	–
100 µM	10 µM	≥ 10 µM	–	O=C(Nc1ccc(NCCCN2CCOCC2)nc1)c1sc2ncnc3c2c1NC(=O)N3c1cccc(Br)c1 [Cpd 64, 5-(3-bromo-phenyl)-4-oxo-4,5-dihydro-3H-1-thia-3,5,6,8-tetraaza-acenaphthylene-2-carboxylic acid [6-(3-morpholin-4-yl-propylamino)-pyridin-3-yl]-amide]	–
–	–	–	0.018 µM	O=C(Nc1ccc(CN2CCCCC2)cc1)c1sc2ncnc3c2c1NC(=O)N3c1ccc(Oc2ccccc2)cc1 [Cpd 96, 4-oxo-5-(4-phenoxy-phenyl)-4,5-dihydro-3H-1-thia-3,5,6,8-tetraaza-acenaphthylene-2-carboxylic acid (4-piperidin-1-ylmethyl-phenyl)-amide]	–
–	–	–	0.099 µM	O=C(Nc1ccc(CN2CCOCC2)cc1)c1sc2ncnc3c2c1NC(=O)N3c1ccc(Oc2ccccc2)cc1 [Cpd 97, 4-oxo-5-(4-phenoxy-phenyl)-4,5-dihydro-3H-1-thia-3,5,6,8-tetraaza-acenaphthylene-2-carboxylic acid (4-morpholin-4-ylmethyl-phenyl)-amide]	–
–	–	–	0.081 µM	CN1CCN(Cc2ccc(NC(=O)c3sc4ncnc5c4c3NC(=O)N5c3ccc(Oc4ccccc4)cc3)cc2)CC1 [Cpd 98, 4-oxo-5-(4-phenoxy-phenyl)-4,5-dihydro-3H-1-thia-3,5,6,8-tetraaza-acenaphthylene-2-carboxylic acid [4-(4-methyl-piperazin-1-ylmethyl)-phenyl]-amide]	–
0.144 µM	4.28 µM	0.383 µM	0.03 µM	O=C(Nc1ccc(CN2CCCCC2)cc1)c1sc2ncnc3c2c1NC(=O)N3c1ccc(Sc2ccccc2)cc1 [Cpd 169, 4-oxo-5-(4-phenylsulfanyl-phenyl)-4,5-dihydro-3H-1-thia-3,5,6,8-tetraaza-acenaphthylene-2-carboxylic acid (4-piperidin-1-ylmethyl-phenyl)-amide]	55.4%
0.292 µM	53.4 µM	0.158 µM	0.126 µM	O=C(Nc1ccc(CN2CCOCC2)cc1)c1sc2ncnc3c2c1NC(=O)N3c1ccc(Sc2ccccc2)cc1 [Cpd 178, 4-oxo-5-(4-phenylsulfanyl-phenyl)-4,5-dihydro-3H-1-thia-3,5,6,8-tetraaza-acenaphthylene-2-carboxylic acid (4-morpholin-4-ylmethyl-phenyl)-amide]	–

— patent publication US7579356B2, “Thia-tetraazaacenaphthylene kinase inhibitors” (Janssen Pharmaceutica NV, priority 2005, dated 2009)
